The source made the active and inactive calls.
What was measured:
BJ = assay: growth inhibition of engineered Ras-driven BJ cells – cell-based, alamar blue fluorescence, cherrypicked samples, dose response (AID 2631); assay type: functional; details: Homo sapiens;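 further: confirmatory dose-response assay in RAS-dependent BJ fibroblasts engineered with TERT, LT and ST, with cytotoxicity read by fluorescence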
Fatty acid synthase [1] = target: T1, Fatty acid synthase (Homo sapiens, UniProt P49327); assay: inhibition of human FAS-TE enzyme activity – biochemical, endpoint fluorescence intensity, uHTS hits, dose response (AID 624327); assay type: functional;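 further: fluorescence from hydrolysis of an O-methyl fluorescein acyl ester substrate by the enzyme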
Fatty acid synthase [2] = target: T1, Fatty acid synthase; assay: inhibition of human FAS-TE enzyme activity – biochemical, kinetic fluorescence intensity, dose response (AID 624326); assay type: functional;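 further: rate of fluorescence rise from hydrolysis of a fluorogenic O-methyl fluorescein ester substrate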
[3] = luciferase reporter signal suppression in cells – H4 neuroglioma cells, luminescence, dose response (AID 1990); assay type: functional, cell-based
CHO = CHO cell viability loss, potency – luminescence, cytotoxicity control for TLR9-MyD88 binding inhibitor project, dose response (AID 588339); assay type: functional, cell-based, hamster; details: Cricetulus griseus;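 further: CHO cells stably coexpressing TLR9 and MyD88 fusions from primary screen; compound exposure lasted 48 hours before viability readout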
[4] = alpha-synuclein stem-loop luciferase translation blockers – H4 neuroglioma cells, luminescence, confirmation (AID 1988); assay type: functional, cell-based
Beta Lactamase = Beta Lactamase (Pseudomonas aeruginosa, UniProt Q932Y6); assay: BLA reporter interference, concentration series – BLA reporter cells, FRET fluorescence, artefact control for TLR9-MyD88 binding inhibitor project, dose response (AID 588341); assay type: cell-based;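 further: cell based assay in CHO-K1 cells stably expressing beta-lactamase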
[5] = Luminescence Cell-Based Dose Response HTS to Identify Inhibitors of 5'UTR Stem-Loop Driven Prion Protein mRNA Translation in H4 Neuroglioblastoma Cells. [Related pubchem assays: 1827 (Project Summary), 1813 (Primary HTS)]; assay type: functional
[6] = target: Protein disulfide-isomerase (Homo sapiens, UniProt P07237); assay: inhibition of PDI-driven insulin aggregation – biochemical, turbidity, absorbance, cherry-picked samples, dose response (AID 602350); assay type: functional
Sequence of Protein disulfide-isomerase (P07237 whole entry): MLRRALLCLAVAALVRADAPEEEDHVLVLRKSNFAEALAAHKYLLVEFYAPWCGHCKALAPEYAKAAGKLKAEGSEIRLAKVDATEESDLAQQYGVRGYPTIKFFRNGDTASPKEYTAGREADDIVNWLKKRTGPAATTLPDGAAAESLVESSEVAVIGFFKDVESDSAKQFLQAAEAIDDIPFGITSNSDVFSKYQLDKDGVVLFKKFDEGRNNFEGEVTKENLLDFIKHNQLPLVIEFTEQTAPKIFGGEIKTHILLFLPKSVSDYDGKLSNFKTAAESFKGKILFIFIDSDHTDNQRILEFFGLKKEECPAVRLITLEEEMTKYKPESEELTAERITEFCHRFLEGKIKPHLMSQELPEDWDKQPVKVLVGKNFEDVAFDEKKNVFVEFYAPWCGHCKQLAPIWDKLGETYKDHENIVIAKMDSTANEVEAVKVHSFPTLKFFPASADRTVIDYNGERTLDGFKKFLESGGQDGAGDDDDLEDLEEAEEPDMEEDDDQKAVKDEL

T1 sequence (P49327 whole entry): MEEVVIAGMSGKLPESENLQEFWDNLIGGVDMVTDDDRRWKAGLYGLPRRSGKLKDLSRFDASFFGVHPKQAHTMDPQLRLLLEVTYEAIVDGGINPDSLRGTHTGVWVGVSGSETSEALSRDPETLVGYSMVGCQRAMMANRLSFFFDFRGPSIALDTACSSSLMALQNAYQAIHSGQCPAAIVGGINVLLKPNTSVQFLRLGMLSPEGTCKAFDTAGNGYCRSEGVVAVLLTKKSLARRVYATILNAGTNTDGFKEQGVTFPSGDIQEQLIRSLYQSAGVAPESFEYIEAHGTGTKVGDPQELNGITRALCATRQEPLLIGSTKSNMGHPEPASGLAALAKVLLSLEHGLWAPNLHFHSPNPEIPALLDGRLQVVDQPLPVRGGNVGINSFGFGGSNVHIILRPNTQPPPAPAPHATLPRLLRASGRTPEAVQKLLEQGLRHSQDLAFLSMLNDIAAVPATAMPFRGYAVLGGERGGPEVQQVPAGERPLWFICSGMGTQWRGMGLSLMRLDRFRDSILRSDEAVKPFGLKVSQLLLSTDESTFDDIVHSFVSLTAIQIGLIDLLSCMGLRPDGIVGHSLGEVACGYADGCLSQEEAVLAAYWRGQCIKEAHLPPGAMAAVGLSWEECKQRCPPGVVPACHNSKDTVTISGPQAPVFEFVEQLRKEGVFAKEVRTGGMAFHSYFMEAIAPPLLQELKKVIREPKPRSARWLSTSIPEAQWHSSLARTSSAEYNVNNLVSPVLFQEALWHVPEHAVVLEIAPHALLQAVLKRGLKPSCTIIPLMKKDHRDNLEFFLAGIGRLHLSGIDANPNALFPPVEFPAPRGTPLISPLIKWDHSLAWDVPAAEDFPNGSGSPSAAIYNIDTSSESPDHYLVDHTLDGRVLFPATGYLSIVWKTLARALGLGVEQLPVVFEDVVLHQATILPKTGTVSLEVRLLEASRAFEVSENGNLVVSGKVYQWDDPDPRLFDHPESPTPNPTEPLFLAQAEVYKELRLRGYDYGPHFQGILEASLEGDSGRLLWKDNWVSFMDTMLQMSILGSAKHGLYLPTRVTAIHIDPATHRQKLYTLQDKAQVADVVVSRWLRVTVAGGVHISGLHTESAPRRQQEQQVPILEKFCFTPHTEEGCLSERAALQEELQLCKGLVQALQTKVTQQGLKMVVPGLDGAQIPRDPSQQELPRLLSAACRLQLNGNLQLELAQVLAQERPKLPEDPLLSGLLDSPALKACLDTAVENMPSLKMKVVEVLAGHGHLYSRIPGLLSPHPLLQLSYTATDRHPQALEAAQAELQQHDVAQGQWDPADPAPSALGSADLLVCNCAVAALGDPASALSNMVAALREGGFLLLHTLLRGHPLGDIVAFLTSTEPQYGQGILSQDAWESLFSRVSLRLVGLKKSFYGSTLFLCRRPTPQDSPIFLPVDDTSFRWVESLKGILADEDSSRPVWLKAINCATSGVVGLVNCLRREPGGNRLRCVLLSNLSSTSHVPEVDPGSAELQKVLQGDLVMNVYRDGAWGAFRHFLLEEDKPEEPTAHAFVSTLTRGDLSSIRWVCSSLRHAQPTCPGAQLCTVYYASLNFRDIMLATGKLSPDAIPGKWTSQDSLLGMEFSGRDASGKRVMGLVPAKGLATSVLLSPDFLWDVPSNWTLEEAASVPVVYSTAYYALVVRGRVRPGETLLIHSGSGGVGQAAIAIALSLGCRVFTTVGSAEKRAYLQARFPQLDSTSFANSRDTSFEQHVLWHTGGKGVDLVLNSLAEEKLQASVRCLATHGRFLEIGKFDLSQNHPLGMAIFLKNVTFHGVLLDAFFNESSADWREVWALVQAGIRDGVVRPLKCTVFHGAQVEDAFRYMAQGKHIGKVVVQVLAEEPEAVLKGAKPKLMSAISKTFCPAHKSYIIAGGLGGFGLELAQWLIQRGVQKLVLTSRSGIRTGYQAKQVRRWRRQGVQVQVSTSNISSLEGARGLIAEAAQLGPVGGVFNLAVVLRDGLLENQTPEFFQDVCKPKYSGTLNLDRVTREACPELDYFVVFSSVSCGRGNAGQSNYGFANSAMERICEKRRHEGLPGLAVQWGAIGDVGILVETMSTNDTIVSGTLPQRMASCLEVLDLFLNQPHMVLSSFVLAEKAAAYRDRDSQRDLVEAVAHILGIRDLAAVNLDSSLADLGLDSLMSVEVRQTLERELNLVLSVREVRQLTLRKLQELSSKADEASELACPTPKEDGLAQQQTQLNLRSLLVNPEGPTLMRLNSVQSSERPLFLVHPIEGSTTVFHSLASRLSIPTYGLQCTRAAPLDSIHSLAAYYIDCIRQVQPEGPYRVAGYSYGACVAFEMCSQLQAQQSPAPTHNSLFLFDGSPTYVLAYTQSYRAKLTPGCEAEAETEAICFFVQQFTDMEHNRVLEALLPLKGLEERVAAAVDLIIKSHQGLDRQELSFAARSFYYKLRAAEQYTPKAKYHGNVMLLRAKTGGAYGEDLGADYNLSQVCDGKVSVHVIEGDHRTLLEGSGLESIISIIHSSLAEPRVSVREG
Sequence of Beta Lactamase (Q932Y6 whole entry): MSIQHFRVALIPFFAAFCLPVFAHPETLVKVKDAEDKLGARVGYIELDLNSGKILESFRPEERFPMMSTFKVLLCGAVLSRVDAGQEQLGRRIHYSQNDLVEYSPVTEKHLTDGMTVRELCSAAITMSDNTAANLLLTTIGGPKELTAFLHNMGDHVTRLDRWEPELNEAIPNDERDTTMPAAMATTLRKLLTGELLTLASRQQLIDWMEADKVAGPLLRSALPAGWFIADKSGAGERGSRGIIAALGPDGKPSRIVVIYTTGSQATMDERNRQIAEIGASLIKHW

With `CCC(C)C(=O)OCC1(c2ccc(C)cc2OC(=O)C(C)C)CO1` (stereo not given) the EC50 (BJ) was 8.58 µM (active).

With `Cc1ccc(C(=O)N/C(=C/c2ccc(-c3ccc([N+](=O)[O-])cc3)o2)C(=O)NCCCN(C)C)cc1` the IC50 (Fatty acid synthase [1]) was 13.8 µM (active), the IC50 (Fatty acid synthase [2]) was 5.71 µM (active) and the EC50 [3] was > 120 µM (not active). For the same compound, the IC50 (CHO) was 22.9 µM (inactive), the EC50 [4] was > 120 µM (not active) and the IC50 (Beta Lactamase) was 6.55 µM (active). The EC50 [5] was > 120 µM (not active).

For `CCN1CC2(COC(=O)c3ccccc3N)CCC(OC)C34C5CC6C(OC)CC(O)(C5C6OC)C(O)(C(OC)C23)C14` (stereo not given), the AC50 [6] was 19.5 µM (active).

For `CCN1C(=O)C2C(c3ccccc3F)NC(Cc3ccc(O)cc3)(C(=O)OC)C2C1=O` (stereo not given), the AC50 [6] was 10.2 µM (active).

Reference: ChEMBL document CHEMBL1201862, “PubChem BioAssay data set” (2004)
